Test results from patent US12534439B2, “Xanthohumol derivatives and methods for making and using” (Oregon State University, priority 2021, dated 2026).

Test system: HFD-fed C57BL/6J mice
Assay: Untargeted cortex LC-MS metabolomics
Format: in vivo
Settings: cortex of HFD-fed mice
Procedure: Plasma and Cortex LC-MS Metabolomics. The left and right sides of the cortex were pooled and ground using liquid nitrogen. Cortex samples (approximately 30 mg) were extracted as previously described with slight modifications. Tissues were homogenized with 600 μL of cold 80% acetonitrile with 0.1% formic acid containing 0.2 μg/mL of dopamine-d4 (Sigma-Aldrich, St Louis, MO, USA) and 0.2 μg/mL of chlorpropamide (Sigma-Aldrich, St Louis, MO, USA) using a counter-top bullet blender for 2 min and centrifuged at 20 000 rpm for 10 minutes. Supernatants were transferred to high performance liquid chromatography (HPLC) vials for analysis.
LC-high-resolution mass spectrometry/MS. Data dependent acquisition in both negative and positive ion mode was conducted using a Shimadzu Nexera UPLC system coupled to an AB SCIEX TripleTOF 5600 mass spectrometer (AB SCIEX, Toronto, Canada). Chromatographic separation was conducted using an Inertsil Phenyl-3 column (4.6×150 mm, 100 Å, 5 μm; GL Sciences, Tokyo, Japan). Spray voltage was −4200 V for negative ion mode and 4500 V for positive ion mode acquisition. The injection volume was 3 μL. Metabolite identifications were performed using Progenesis QI software (V2.4.6911) with METLIN plugin V1.0.6499 (NonLinear Dynamics, United Kingdom). Progenesis QI was used for peak picking, retention time correction, data normalization, peak alignment, and metabolite annotations. Metabolites were detected in both ion modes; the one with the lowest coefficient of variation of the QC was kept.

Structure (SMILES): COc1cc(O)c(CC=C(C)C)c(O)c1C(=O)/C=C/c1ccc(O)cc1 [XN, xanthohumol]
- Ion intensities, Mean: 1,2-DIPALMITOYL-SN-GLYCEROL: 934.62
- Ion intensities, Mean: 1-Arachidonoyl-glycerophosphoinositol: 645.87
- Ion intensities, Mean: 1-Palmitoyl-2-linoleoyl PE: 1782.31
- Ion intensities, Mean: 2-Pyrrolidinone: 1091.46
- Ion intensities, Mean: 2′-DEOXYURIDINE 5′-MONOPHOSPHATE: 615.86
- Ion intensities, Mean: 3-Methyl-L-histidine: 495.48
- Ion intensities, Mean: 3-PHOSPHO-GLYCERIC ACID: 2094.74
- Ion intensities, Mean: 5-Acetylamino-6-amino-3-methyluracil: 108.09
- Ion intensities, Mean: 5-Methylcytidine: 6615.71
- Ion intensities, Mean: 12-HYDROXYDODECANOIC-ACID: 2479.58
- Ion intensities, Mean: 20-Hydroxy-PGE2: 9703.49
- Ion intensities, Mean: 27-Hydroxycholesterol: 17882.79
- Ion intensities, Mean: ADENOSINE: 42044.83
- Ion intensities, Mean: ADENOSINE 5′-DIPHOSPHORIBOSE: 2010.85
- Ion intensities, Mean: ADENOSINE 5′-MONOPHOSPHATE: 75745.39
- Ion intensities, Mean: ADENOSINE-5′-DIPHOSPHOGLUCOSE: 924.21
- Ion intensities, Mean: ADP: 1070.27
- Ion intensities, Mean: AMINOADIPATE: 211.18
- Ion intensities, Mean: ASCORBATE: 2138.35
- Ion intensities, Mean: ASPARTATE: 1174.88
- Ion intensities, Mean: Acetylcarnitine: 11173.39
- Ion intensities, Mean: Acetylcholine: 1788.61
- Ion intensities, Mean: Adenine: 1575.62
- Ion intensities, Mean: Adenylosuccinate: 482.18
- Ion intensities, Mean: Adenylsuccinic acid: 1871.57
- Ion intensities, Mean: Arachidonic acid: 25496.26
- Ion intensities, Mean: Arachidonic acid ethyl ester: 417.92
- Ion intensities, Mean: Arginine: 1863.90
- Ion intensities, Mean: Aspartic acid: 8381.28
- Ion intensities, Mean: BILIVERDIN: 251.38
- Ion intensities, Mean: CARNITINE: 11992.59
- Ion intensities, Mean: CDP-Ethanolamine: 303.02
- Ion intensities, Mean: CHENODEOXYCHOLATE: 5290.32
- Ion intensities, Mean: CITRATE: 997.79
- Ion intensities, Mean: CMP: 586.09
- Ion intensities, Mean: Carnosine: 929.30
- Ion intensities, Mean: Choline: 7326.72
- Ion intensities, Mean: Creatine: 81660.56
- Ion intensities, Mean: Cysteineglutathione disulfide: 1321.30
- Ion intensities, Mean: Cytidine: 766.86
- Ion intensities, Mean: Cytidine 2′,3′-cyclic phosphate: 419.79
- Ion intensities, Mean: Cytidine diphosphate choline (CDPcholine): 2132.21
- Ion intensities, Mean: D-GLUCOSE 6-PHOSPHATE: 54.37
- Ion intensities, Mean: D-Glucaro-1,4-lactone: 1852.68
- Ion intensities, Mean: D-RIBOSE 5-PHOSPHATE: 119.65
- Ion intensities, Mean: DESMOSTEROL: 16777.33
- Ion intensities, Mean: DIHYDROOROTATE: 129.45
- Ion intensities, Mean: Deoxycytidine: 405.53
- Ion intensities, Mean: Deoxyguanosine: 2552.08
- Ion intensities, Mean: Docosahexaenoic acid: 3528.63
- Ion intensities, Mean: Docosenamide: 22701.50
- Ion intensities, Mean: Dodecanedioic acid: 332.32
- Ion intensities, Mean: ERUCIC ACID: 114.42
- Ion intensities, Mean: ETHANOLAMINE PHOSPHATE: 361.87
- Ion intensities, Mean: Ergothioneine: 433.26
- Ion intensities, Mean: Ethyl nicotinate: 74.78
- Ion intensities, Mean: GLUTAMIC ACID: 7047.98
- Ion intensities, Mean: GLUTAMINE: 18241.11
- Ion intensities, Mean: GUANOSINE 5′-MONOPHOSPHATE: 2052.93
- Ion intensities, Mean: Glutamate: 45779.91
- Ion intensities, Mean: Glutathione: 194624.55
- Ion intensities, Mean: Glycerophosphocholine: 104911.40
- Ion intensities, Mean: Guanosine monophosphate: 482.20
- Ion intensities, Mean: HEPTADECANOATE: 24.77
- Ion intensities, Mean: HISTIDINE: 901.19
- Ion intensities, Mean: Homocarnosine: 433.96
- Ion intensities, Mean: Homoserine: 952.74
- Ion intensities, Mean: Hydroxybutyric acid: 2561.64
- Ion intensities, Mean: Hydroxyphenethylamine: 3489.46
- Ion intensities, Mean: Hypoxanthine: 100.45
- Ion intensities, Mean: Hypusine: 94.62
- Ion intensities, Mean: ISOCITRIC ACID: 2099.31
- Ion intensities, Mean: ISOLEUCINE: 1271.60
- Ion intensities, Mean: Indoleacetaldehyde: 565.25
- Ion intensities, Mean: Inosine: 1426.47
- Ion intensities, Mean: Inosine 5′-monophosphate (IMP): 3551.74
- Ion intensities, Mean: Isostearic acid: 2314.30
- Ion intensities, Mean: L-2-Amino-5-hydroxypentanoicacid: 1771.05
- Ion intensities, Mean: L-OLEOYL-RAC-GLYCEROL: 3415.51
- Ion intensities, Mean: LACTATE: 3374.25
- Ion intensities, Mean: LAUROYLCARNITINE: 384.69
- Ion intensities, Mean: LEUKOTRIENE B4: 49.50
- Ion intensities, Mean: LYSINE: 51.50
- Ion intensities, Mean: Lathosterol: 23593.87
- Ion intensities, Mean: Lipoamide: 70.91
- Ion intensities, Mean: MALATE: 1271.76
- Ion intensities, Mean: Methionine: 1365.89
- Ion intensities, Mean: Methylthioadenosine: 2473.94
- Ion intensities, Mean: Myristoylcarnitine: 1742.03
- Ion intensities, Mean: N,N-dimethyl-Safingol: 638.46
- Ion intensities, Mean: N-(1-Deoxy-1-fructosyl) serine: 3036.19
- Ion intensities, Mean: N-ACETYL-L-ASPARTICACID: 24960.43
- Ion intensities, Mean: N-ACETYLNEURAMINATE: 817.62
- Ion intensities, Mean: N-Acetyl-Glutamic acid: 154.68
- Ion intensities, Mean: N-Acetyl-L-alanine: 1997.71
- Ion intensities, Mean: N-Acetylaspartylglutamic acid: 2179.47
- Ion intensities, Mean: N-Acetylglutamine: 273.18
- Ion intensities, Mean: N-Acetylisoputreanine: 99.54
- Ion intensities, Mean: N-Acetyllactosamine: 308.43
- Ion intensities, Mean: N-Linoleoyl GABA: 57.01
- Ion intensities, Mean: N-Methyl-Glutamate: 2277.43
- Ion intensities, Mean: N-a-Acetyl-Arginine: 175.03
- Ion intensities, Mean: NAD: 532.29
- Ion intensities, Mean: NE,NE,NE-TRIMETHYLLYSINE: 2830.12
- Ion intensities, Mean: Niacinamide: 4607.66
- Ion intensities, Mean: Nicotinamide adenine dinucleotide (NAD): 2094413
- Ion intensities, Mean: O-Phosphoethanolamine: 497.23
- Ion intensities, Mean: Octadecenoic acid: 202.97
- Ion intensities, Mean: Oleamide: 4025.45
- Ion intensities, Mean: Oxidized glutathione: 2115.40
- Ion intensities, Mean: PALMITATE: 1472.32
- Ion intensities, Mean: PALMITOLEIC ACID: 62.02
- Ion intensities, Mean: PANTOTHENIC ACID: 442.74
- Ion intensities, Mean: PETROSELINIC ACID: 220.71
- Ion intensities, Mean: PHENYLALANINE: 2371.34
- Ion intensities, Mean: PHENYLETHANOLAMINE: 1245.94
- Ion intensities, Mean: Phenylpropionylglycine: 294.60
- Ion intensities, Mean: Phosphocholine: 18574.78
- Ion intensities, Mean: Phosphodimethyl-ethanolamine: 161.80
- Ion intensities, Mean: Pipecolic acid: 422.43
- Ion intensities, Mean: Propionylcarnitine: 571.28
- Ion intensities, Mean: Pyridoxamine-5′-Phosphate: 377.92
- Ion intensities, Mean: RAC-GLYCEROL-L-MYRISTATE: 293.55
- Ion intensities, Mean: S-Adenosylhomocysteine: 397.04
- Ion intensities, Mean: S-Adenosylmethionine: 11562.08
- Ion intensities, Mean: SERINE: 355.32
- Ion intensities, Mean: SUCCINATE: 362.22
- Ion intensities, Mean: Spermic acid 1: 178.91
- Ion intensities, Mean: Spermidine: 5406.36
- Ion intensities, Mean: Sphinganine: 34.01
- Ion intensities, Mean: Sphinganine 1-phosphate: 2568.50
- Ion intensities, Mean: Sphingosine: 1322.46
- Ion intensities, Mean: Stearoylglycerophosphoserine: 2006.21
- Ion intensities, Mean: Succinyladenosine: 192.45
- Ion intensities, Mean: TAURINE: 6070.22
- Ion intensities, Mean: THEOPHYLLINE: 18.71
- Ion intensities, Mean: TRYPTOPHAN: 1131.43
- Ion intensities, Mean: Tetradecanedioic acid: 125.75
- Ion intensities, Mean: Tetrahydrodeoxycortisol: 3344.70
- Ion intensities, Mean: Threoninyl-Alanine: 227.23
- Ion intensities, Mean: Tyrosine: 4311.01
- Ion intensities, Mean: URIDINE: 1155.56
- Ion intensities, Mean: URIDINE 5′-DIPHOSPHOGALACTOSE: 462.04
- Ion intensities, Mean: URIDINE-5-MONOPHOSPHATE: 2103.27
- Ion intensities, Mean: Undecanedicarboxylic acid: 236.12
- Ion intensities, Mean: Uracil: 201.36
- Ion intensities, Mean: Uridine 5′-diphosphate: 248.01
- Ion intensities, Mean: Xanthine: 137.03
- Ion intensities, Mean: cyclic GMP-AMP: 1495.60
- Ion intensities, Mean: diethyltoluamide: 8.44
- Ion intensities, Mean: docosa-hexaenoic acid: 3095.80
- Ion intensities, Mean: hydroxyhexadecanoyl carnitine: 1430.92
- Ion intensities, Mean: hydroxyvitamin D3: 16859.40
- Ion intensities, Mean: sn-glycero-3-Phosphoethanolamine: 737.74
